Measured values published in the PolyMetriX glass transition set.
± gives the standard deviation of the reports.

Row | glass transition temperature [°C] | SMILES
1 | -33.00 | *CC(*)(C)C(=O)OCc1ccc(OCCOCCOCC)c(OCCOCCOCC)c1 (repeat unit)
2 | 195.00 | *Nc1ccc(Cc2ccc(NC(=O)c3cc(NC(=O)C(C(C)CC)N4C(=O)c5ccccc5C4=O)cc(C(*)=O)c3)cc2)cc1 (repeat unit)
3 | 61.10 | *O[Si](*)(C)CCCOc1ccc(C(=O)OC2CCC3(C)C(=CCC4C3CCC3(C)C(C(C)CCCC(C)C)CCC43)C2)cc1 (repeat unit)
4 | 107.80 | *CCCCCCCn1c2ccccc2c2cc(/C=C(\C#N)C(=O)OCCCCCCOC(=O)/C(C#N)=C/c3ccc4c(c3)c3ccccc3n4*)ccc21 (repeat unit)
5 | 58.00 | *CCCC1(C)CCN(C(=O)CCCC(=O)N2CCC(*)(C)CC2)CC1 (repeat unit)
6 | 59.60 | *c1ccc(-c2sc(-c3cc(CCCCCCCCCCCC)c(*)s3)cc2CCCCCCCCCCCC)cc1 (repeat unit)
7 | 231.00 | *c1c(C)cc(C(c2cccnc2)c2cc(C)c(N3C(=O)CC(Nc4ccc(NC5CC(=O)N(*)C5=O)cc4)C3=O)c(C)c2)cc1C (repeat unit)
8 | 231.00 | *Oc1ccc(Oc2ccc(C(=O)Nc3ccc(Oc4ccc(S(=O)(=O)c5ccc(Oc6ccc(NC(=O)c7ccc(*)cc7)cc6)cc5)cc4)cc3)cc2)cc1-c1ccccc1 (repeat unit)
9 | 112.00 | *Oc1ccc(OC(=O)c2cc(OCCCCCCCCCCCC)c(C(*)=O)cc2OCCCCCCCCCCCC)cc1C (repeat unit)
10 | 78.00 | *CC(*)C(=O)Oc1ccc(C(=O)c2ccc(Cl)cc2)cc1 (repeat unit)
11 | 116.00 | *CCOCCOCCOc1cccc(NC(=O)c2ccc(C(=O)Nc3cccc(O*)c3)cc2)c1 (repeat unit)
12 | 195.00 | *c1ccc(C(=O)c2ccc(-n3nc(-c4ccccc4)c4cc(Oc5ccc(C(C)(C)c6ccc(Oc7ccc8c(-c9ccccc9)nn(*)c(=O)c8c7)cc6)cc5)ccc4c3=O)cc2)cc1 (repeat unit)
13 | 346.00 | *Oc1ccc(Sc2ccc(Oc3ccc4c(=O)n5c6cc(Oc7ccc8c(c7)nc7c9ccc(*)c%10cccc(c(=O)n87)c%109)ccc6nc5c5cccc3c45)cc2)cc1 (repeat unit)
14 | 180.00 | *c1cccc(NC(=O)c2ccc(OCCOCCOCCOc3ccc(C(=O)Nc4ccc5[nH]c(*)nc5c4)cc3)cc2)c1 (repeat unit)
15 | 230.00 | *c1ccc(-c2ccc(NC(=O)c3cccc(C(=O)Nc4ccc(-c5ccc(N6C(=O)c7ccc(-c8ccc9c(c8)C(=O)N(*)C9=O)cc7C6=O)cc5)cc4)c3)cc2)cc1 (repeat unit)
16 | 259.00 | *Oc1ccc(Oc2ccc(S(=O)(=O)c3ccc(-c4ccc(-c5ccc(S(=O)(=O)c6ccc(*)cc6)cc5)cc4)cc3)cc2)cc1 (repeat unit)
17 | 56.80 | *O[Si](*)(C)CCCOc1ccc(C(=O)Oc2ccc(-c3ccc(OC(=O)CCCCC(=O)OC4CC(C)CCC4C(C)C)cc3)cc2)cc1 (repeat unit)
18 | 50.00 | *c1cc(CCCCCCOC(=O)COc2ccccc2)c(*)s1 (repeat unit)
19 | -54.00 | *O[Si](C)(C)O[Si](C)(C)O[Si](C)(C)O[Si](C)(C)O[Si](C)(C)OC1=C(*)c2cccc3cccc1c23 (repeat unit)
20 | 313.00 | *c1ccc(Oc2ccc(C(=O)c3ccc(Oc4ccc(-c5nnc(*)c6c(-c7ccc(F)cc7)c(-c7ccc(F)cc7)c(-c7ccc(F)cc7)c(-c7ccc(F)cc7)c56)cc4)cc3)cc2)cc1 (repeat unit)
21 | 17.00 | *CCOCCOC(=O)c1ccccc1-c1ccccc1C(=O)O* (repeat unit)
22 | 233.00 | *CC(=O)Nc1ccc(Cc2ccc(NC(=O)CN3C(=O)c4ccc(C(=O)c5ccc6c(c5)C(=O)N(*)C6=O)cc4C3=O)cc2)cc1 (repeat unit)
23 | 180.00 | *Oc1ccc(C(CC)(CC)c2ccc(OC(=O)c3ccc(C(*)=O)cc3)cc2)cc1 (repeat unit)
24 | 252.00 | *c1ccc(Cc2ccc(-n3nc(-c4ccccc4)cc3-c3ccc(-c4cc(-c5ccccc5)nn4*)cc3)cc2)cc1 (repeat unit)
25 | 94.2 | *CC(O)CN(Cc1ccccc1)CC(O)COc1ccc(C(C)(C)c2ccc(O*)cc2)cc1 (repeat unit)

Row | glass transition temperature [°C] | SMILES
26 | 338.00 | *Nc1ccc(NC(=O)c2ccc(NC(=O)c3ccc([Si](C)(C)c4ccc(C(=O)Nc5ccc(C(*)=O)cc5)cc4)cc3)cc2)cc1 (repeat unit)
27 | 371.00 | *c1ccc(Oc2ccc(-c3c(-c4ccccc4)c4c(c(-c5ccccc5)c3-c3ccccc3)C(=O)N(c3ccc(N5C(=O)c6c(c(-c7ccccc7)c(-c7ccccc7)c(*)c6-c6ccccc6)C5=O)cc3)C4=O)cc2)cc1 (repeat unit)
28 | 279.00 | *c1ccc(Sc2ccc(-c3nn(-c4ccc(S(=O)(=O)c5ccc(-n6nc(*)c7ccccc7c6=O)cc5)cc4)c(=O)c4ccccc34)cc2)cc1 (repeat unit)
29 | 117.00 | *Oc1ccc(C2(c3ccc(OC(=O)CCCCCCCCCCC(*)=O)cc3)c3ccccc3-c3ccccc32)cc1 (repeat unit)
30 | 289.00 | *c1ccc(Oc2ccc(-c3nc4cc(Oc5ccc(NC(=O)c6ccc7c(c6)C(=O)N(c6ccc(C(c8ccc(N9C(=O)c%10ccc(C(=O)Nc%11ccc(Oc%12ccc%13nc(-c%14ccccc%14)c(*)nc%13c%12)cc%11)cc%10C9=O)cc8)(C(F)(F)F)C(F)(F)F)cc6)C7=O)cc5)ccc4nc3-c3ccccc3)cc2)cc1 (repeat unit)
31 | 99.00 | *CCCC1(C)CCN(C(=O)CCC(=O)N2CCC(*)(C)CC2)CC1 (repeat unit)
32 | 102.00 | *Oc1ccc(C(C)(CC)c2ccc(OC(*)=S)cc2)cc1 (repeat unit)
33 | 48.00 | *CC(*)(CC(=O)OCCC1CCCCC1)C(=O)OCCC1CCCCC1 (repeat unit)
34 | 242.00 | *CC(=O)Nc1ccc(Oc2ccc(Oc3ccc(NC(=O)c4ccc5c(c4)C(=O)N(*)C5=O)cc3)cc2)cc1 (repeat unit)
35 | 129.00 | *Oc1cc(CCC)cc(OC(=O)c2cccc(C(*)=O)c2)c1 (repeat unit)
36 | 232.00 | *c1ccc(Oc2c(C)cc(C(C)(C)c3cc(C)c(Oc4ccc(N5C(=O)c6ccc(Oc7ccc(C8(c9ccc(Oc%10ccc%11c(c%10)C(=O)N(*)C%11=O)cc9)CCC(c9ccccc9)CC8)cc7)cc6C5=O)cc4)c(C)c3)cc2C)cc1 (repeat unit)
37 | 41.00 | *CC(*)(C)C(=O)OCCCCCCCCCCOc1ccc(OC(=O)c2ccc(OCCCCCC)cc2)cc1 (repeat unit)
38 | 217.00 | *Nc1ccc(Cc2ccc(NC(=O)Nc3ccccc3CCc3ccc(NC(*)=O)cc3)cc2)cc1 (repeat unit)
39 | 50.00 | *Oc1ccc(CC(NC(=O)Cc2ccc(OC(=O)COCCOCC(*)=O)cc2)C(=O)OCC)cc1 (repeat unit)
40 | 145.00 | *CCCCCCCCN1C(=O)c2ccc(Oc3ccc4c(c3)C(=O)N(*)C4=O)cc2C1=O (repeat unit)
41 | 23.00 | *CCCCCCOC(=O)C(C(=O)OCCCCCCOc1ccc(-n2on2-c2ccc(O*)cc2)cc1)c1ccccc1 (repeat unit)
42 | -3.00 | *CCCCCCNC(=O)CCCCCCCC1C(CCCCCCCC(=O)N*)C=CC(CCCCCC)C1CCCCCCCC (repeat unit)
43 | 325.00 | *C(=O)Nc1cccc(NC(=O)c2ccc(-c3nc4cc(*)ccc4[nH]3)cc2)c1 (repeat unit)
44 | 394.00 | *c1ccc2c(c1)C(=O)N(c1ccc3c(c1)-c1cc(N4C(=O)c5ccc(C(*)(C(F)(F)F)C(F)(F)F)cc5C4=O)ccc1C3)C2=O (repeat unit)
45 | 137.00 | *CCN(CCOC(=O)Nc1ccc(C)c(NC(=O)O*)c1)c1ccc(/N=N/c2ccc([N+](=O)[O-])cc2C)cc1 (repeat unit)
46 | 143.20 | *CC(O)COc1ccc(Cc2ccc(O*)cc2)cc1 (repeat unit)
47 | 179.00 | *=Nc1ccc(/N=C(\c2ccccc2)c2ccc(C(=*)c3ccccc3)cc2)cc1 (repeat unit)
48 | 275.00 | *Nc1cccc(NC(=O)c2cccc(C(*)=O)c2)c1 (repeat unit)
49 | 206.50 ± 0.7 | *c1ccc2c(c1)C(=O)N(c1cccc(Oc3cccc(Oc4cccc(N5C(=O)c6ccc(C(*)(C(F)(F)F)C(F)(F)F)cc6C5=O)c4)c3)c1)C2=O (repeat unit)

Row | SMILES | glass transition temperature [°C]
50 | *CC(*)c1cc(Br)ccc1OCCC (repeat unit) | 54.00
51 | *CC(*)OC(C)C (repeat unit) [Poly(vinyl isopropyl ether) ] | -4 ± 2.3
52 | *CCCCCCCCCCOc1ccc(/C=C2\CC/C(=C\c3ccc(OCCCCCCCCCCOP(=O)(O*)OC)c(OC)c3)C2=O)cc1OC (repeat unit) | 48.00
53 | *c1cc(C(C(=O)OC)C(=O)OC)c(*)s1 (repeat unit) | -20.10
54 | *C(=O)c1ccc(N(*)CCC)cc1 (repeat unit) | 136.00
55 | *CC1(C)CC(*)(C)C(=O)OC1=O (repeat unit) | 144.00
56 | *c1ccc(OCCN(CCOc2ccc(-c3nc4ccc(Oc5ccc6nc(*)c(-c7ccccc7)nc6c5)cc4nc3-c3ccccc3)cc2)c2ccc(/N=N/c3ccc([N+](=O)[O-])cc3C)cc2)cc1 (repeat unit) | 188.00
57 | *CCCCCCCCCCC(=O)O* (repeat unit) | -46.0
58 | *CC(*)CN (repeat unit) | 190.00
59 | *O[Si](*)(CCC)c1ccccc1 (repeat unit) | 40.60
60 | *CC#CC#CCOc1ccc(C(=O)OCCN(CCOC(=O)c2ccc(O*)cc2)c2ccc(/N=N/c3ccc(/N=N/c4cc(C)c([N+](=O)[O-])c(C)c4)cc3)cc2)cc1 (repeat unit) | 115.00
61 | *c1cccc(P(C)(=O)c2cccc(N3C(=O)c4ccc(NC(=O)OCCOc5ccc(C(c6ccc(OCCOC(=O)Nc7ccc8c(c7)C(=O)N(*)C8=O)cc6)(C(F)(F)F)C(F)(F)F)cc5)cc4C3=O)c2)c1 (repeat unit) | 204.00
62 | *CCCCOC(=O)CCCC(=O)O* (repeat unit) | -36.50
